Test results taken from PubChem BioAssay AID1963430 (Molecular Pharmacology Branch, DTP, NCI, 2024).
pIC50: −log10 of the molar value.

Test system: 521955-158-R2-J5-PDC complex spheroid growth, % test/control
Test: Anticancer human tumor 521955-158-R2-J5-PDC patient-derived pancreatic carcinoma cell line growth inhibition [Asc]
Details: for pIC50: curve of first compound; for viability, T/C: stronger effect = lower value
How it was run: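 Complex solid-tumor spheroids incorporating human endothelial and mesenchymal stem cells received single agents or combinations over half-log dilution ranges anchored to clinical Cmax.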

[1] = second compound 0.1 µM, first compound 0.00316 µM
[2] = second compound 0.1 µM, first compound 0.01 µM
[3] = second compound 0.1 µM, first compound 0.0316 µM
[4] = second compound 0.1 µM, first compound 0.1 µM
[5] = second compound 0.316 µM, first compound 0.00316 µM
[6] = second compound 0.316 µM, first compound 0.01 µM
[7] = second compound 0.316 µM, first compound 0.0316 µM
[8] = second compound 0.316 µM, first compound 0.1 µM
[9] = second compound 1 µM, first compound 0.00316 µM
[10] = second compound 1 µM, first compound 0.01 µM
[11] = second compound 1 µM, first compound 0.0316 µM
[12] = second compound 1 µM, first compound 0.1 µM
[13] = second compound 3.16 µM, first compound 0.00316 µM
[14] = second compound 3.16 µM, first compound 0.01 µM
[15] = second compound 3.16 µM, first compound 0.0316 µM
[16] = second compound 3.16 µM, first compound 0.1 µM
[17] = second compound 10 µM, first compound 0.00316 µM
[18] = second compound 10 µM, first compound 0.01 µM
[19] = second compound 10 µM, first compound 0.0316 µM
[20] = second compound 10 µM, first compound 0.1 µM
[21] = second compound 0.01 µM, first compound 0.00949 µM
[22] = second compound 0.01 µM, first compound 0.03 µM
[23] = second compound 0.01 µM, first compound 0.0949 µM
[24] = second compound 0.01 µM, first compound 0.3 µM
[25] = second compound 0.0316 µM, first compound 0.00949 µM
[26] = second compound 0.0316 µM, first compound 0.03 µM
[27] = second compound 0.0316 µM, first compound 0.0949 µM
[28] = second compound 0.0316 µM, first compound 0.3 µM
[29] = second compound 0.1 µM, first compound 0.00949 µM
[30] = second compound 0.1 µM, first compound 0.03 µM
[31] = second compound 0.1 µM, first compound 0.0949 µM
[32] = second compound 0.1 µM, first compound 0.3 µM
[33] = second compound 0.316 µM, first compound 0.00949 µM
[34] = second compound 0.316 µM, first compound 0.03 µM
[35] = second compound 0.316 µM, first compound 0.0949 µM
[36] = second compound 0.316 µM, first compound 0.3 µM
[37] = second compound 1 µM, first compound 0.00949 µM
[38] = second compound 1 µM, first compound 0.03 µM
[39] = second compound 1 µM, first compound 0.0949 µM
[40] = second compound 1 µM, first compound 0.3 µM
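Note: spheroids exposed to agents for 7 days before readout.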
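Throughout, for viability, T/C: 100% = DMSO vehicle control viability.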

With Cn1ncnc1[C@H]1c2n[nH]c(=O)c3cc(F)cc(c23)N[C@@H]1c1ccc(F)cc1 + Cc1c(S(C)(=O)=O)c(-c2cc(F)cc(N3CCN(c4ccc(NS(=O)(=O)c5ccc(NC(CCN6CCC(C(=O)OCCCP(=O)(O)O)CC6)CSc6ccccc6)c(S(=O)(=O)C(F)(F)F)c5)cc4)CC3)c2)c(-c2ccc(Cl)cc2)n1C(C)C the pIC50 (second compound 0.1 µM) was < 7.00, the pIC50 (second compound 0.316 µM) was < 7.00 and the pIC50 (second compound 1 µM) was 7.27. The pIC50 (second compound 3.16 µM) was 7.54, the pIC50 (second compound 10 µM) was < 7.00 and the viability, T/C (second compound 0.1 µM, first compound 0.000316 µM) was 93.4%. The viability, T/C (second compound 0.1 µM, first compound 0.001 µM) was 80.7%, the viability, T/C [1] was 61.1% and the viability, T/C [2] was 67.2%. The viability, T/C [3] was 53.3%, the viability, T/C [4] was 53.1% and the viability, T/C (second compound 0.316 µM, first compound 0.000316 µM) was 99.6%. The viability, T/C (second compound 0.316 µM, first compound 0.001 µM) was 84.3%, the viability, T/C [5] was 74.6% and the viability, T/C [6] was 81.4%. It also gave a viability, T/C [7] of 65.1%, a viability, T/C [8] of 68.8% and a viability, T/C (second compound 1 µM, first compound 0.000316 µM) of 151%. It also gave a viability, T/C (second compound 1 µM, first compound 0.001 µM) of 85%, a viability, T/C [9] of 102% and a viability, T/C [10] of 55.1%. It also gave a viability, T/C [11] of 54.8%, a viability, T/C [12] of 56.5% and a viability, T/C (second compound 3.16 µM, first compound 0.000316 µM) of 78.3%. It also gave a viability, T/C (second compound 3.16 µM, first compound 0.001 µM) of 105%, a viability, T/C [13] of 82.3% and a viability, T/C [14] of 70.6%. The viability, T/C [15] was 39.8%, the viability, T/C [16] was 56.8% and the viability, T/C (second compound 10 µM, first compound 0.000316 µM) was 241%. For the same compound, the viability, T/C (second compound 10 µM, first compound 0.001 µM) was 216%, the viability, T/C [17] was 201% and the viability, T/C [18] was 173%. For the same compound, the viability, T/C [19] was 236% and the viability, T/C [20] was 164%.

NC(=O)C(=Cn1cnc(-c2cc(C(F)(F)F)cc(C(F)(F)F)c2)n1)c1cncnc1 + CNC(C)C(=O)NC1CN(S(=O)(=O)c2cccc(S(=O)(=O)N3CCC4CCC(C(=O)NC(c5ccccc5)c5ccccc5)N4C(=O)C(NC(=O)C(C)NC)C3)c2)CCC2CCC(C(=O)NC(c3ccccc3)c3ccccc3)N2C1=O was tested, and the pIC50 (second compound 0.01 µM) was 8.27, the pIC50 (second compound 0.0316 µM) was 8.06 and the pIC50 (second compound 0.1 µM) was 7.35. It also gave a pIC50 (second compound 0.316 µM) of 7.63, a pIC50 (second compound 1 µM) of 7.32 and a viability, T/C (second compound 0.01 µM, first compound 0.000949 µM) of 96.9%. For the same compound, the viability, T/C (second compound 0.01 µM, first compound 0.003 µM) was 60.7%, the viability, T/C [21] was 39% and the viability, T/C [22] was 43%. It also gave a viability, T/C [23] of 37.4%, a viability, T/C [24] of 34.8% and a viability, T/C (second compound 0.0316 µM, first compound 0.000949 µM) of 84.4%. The viability, T/C (second compound 0.0316 µM, first compound 0.003 µM) was 91.9%, the viability, T/C [25] was 46.5% and the viability, T/C [26] was 36.5%. For the same compound, the viability, T/C [27] was 34.8%, the viability, T/C [28] was 27.4% and the viability, T/C (second compound 0.1 µM, first compound 0.000949 µM) was 97.8%. For the same compound, the viability, T/C (second compound 0.1 µM, first compound 0.003 µM) was 77.9%, the viability, T/C [29] was 72.9% and the viability, T/C [30] was 52.6%. For the same compound, the viability, T/C [31] was 42.6%, the viability, T/C [32] was 27.1% and the viability, T/C (second compound 0.316 µM, first compound 0.000949 µM) was 86.2%. It also gave a viability, T/C (second compound 0.316 µM, first compound 0.003 µM) of 76%, a viability, T/C [33] of 39.8% and a viability, T/C [34] of 61.5%. For the same compound, the viability, T/C [35] was 40.7%, the viability, T/C [36] was 25.9% and the viability, T/C (second compound 1 µM, first compound 0.000949 µM) was 108%. It also gave a viability, T/C (second compound 1 µM, first compound 0.003 µM) of 89.7%, a viability, T/C [37] of 77.2% and a viability, T/C [38] of 58.6%. The viability, T/C [39] was 36.1% and the viability, T/C [40] was 32.3%.

Compound Cc1nc(N2CCC3(CC2)COC(C)C3N)c(CO)nc1Sc1ccnc(N)c1Cl (stereo not given) + CNC(C)C(=O)NC1CN(S(=O)(=O)c2cccc(S(=O)(=O)N3CCC4CCC(C(=O)NC(c5ccccc5)c5ccccc5)N4C(=O)C(NC(=O)C(C)NC)C3)c2)CCC2CCC(C(=O)NC(c3ccccc3)c3ccccc3)N2C1=O has a pIC50 (second compound 0.01 µM) of 6.21, a pIC50 (second compound 0.0316 µM) of 6.05 and a pIC50 (second compound 0.1 µM) of 6.57. The pIC50 (second compound 0.316 µM) was < 5.52, the pIC50 (second compound 1 µM) was 5.83 and the viability, T/C [21] was 86.7%. For the same compound, the viability, T/C [22] was 67.7%, the viability, T/C [23] was 64.6% and the viability, T/C [24] was 49%. It also gave a viability, T/C (second compound 0.01 µM, first compound 0.949 µM) of 48.9%, a viability, T/C (second compound 0.01 µM, first compound 3 µM) of 46.2% and a viability, T/C [25] of 83.6%. For the same compound, the viability, T/C [26] was 72%, the viability, T/C [27] was 66.7% and the viability, T/C [28] was 46%. For the same compound, the viability, T/C (second compound 0.0316 µM, first compound 0.949 µM) was 50.4%, the viability, T/C (second compound 0.0316 µM, first compound 3 µM) was 52.6% and the viability, T/C [29] was 84.3%. The viability, T/C [30] was 68.1%, the viability, T/C [31] was 58.9% and the viability, T/C [32] was 43%. The viability, T/C (second compound 0.1 µM, first compound 0.949 µM) was 52.1%, the viability, T/C (second compound 0.1 µM, first compound 3 µM) was 46.9% and the viability, T/C [33] was 93.3%. For the same compound, the viability, T/C [34] was 65.3%, the viability, T/C [35] was 64.4% and the viability, T/C [36] was 51.9%. The viability, T/C (second compound 0.316 µM, first compound 0.949 µM) was 53.9%, the viability, T/C (second compound 0.316 µM, first compound 3 µM) was 51.6% and the viability, T/C [37] was 76.7%. For the same compound, the viability, T/C [38] was 59.3%, the viability, T/C [39] was 62.2% and the viability, T/C [40] was 50.9%. For the same compound, the viability, T/C (second compound 1 µM, first compound 0.949 µM) was 57.2% and the viability, T/C (second compound 1 µM, first compound 3 µM) was 45%.

O=C(c1ccc(F)c(F)c1Nc1ccc(I)cc1F)N1CC(O)([C@@H]2CCCCN2)C1 + Cc1c(S(C)(=O)=O)c(-c2cc(F)cc(N3CCN(c4ccc(NS(=O)(=O)c5ccc(NC(CCN6CCC(C(=O)OCCCP(=O)(O)O)CC6)CSc6ccccc6)c(S(=O)(=O)C(F)(F)F)c5)cc4)CC3)c2)c(-c2ccc(Cl)cc2)n1C(C)C was tested, and the pIC50 (second compound 0.1 µM) was 6.99, the pIC50 (second compound 0.316 µM) was 7.67 and the pIC50 (second compound 1 µM) was 7.49. For the same compound, the pIC50 (second compound 3.16 µM) was 7.40, the pIC50 (second compound 10 µM) was 7.10 and the viability, T/C [1] was 64%. The viability, T/C [2] was 60.4%, the viability, T/C [3] was 69.8% and the viability, T/C [4] was 45.5%. For the same compound, the viability, T/C (second compound 0.1 µM, first compound 0.316 µM) was 34.5%, the viability, T/C (second compound 0.1 µM, first compound 1 µM) was 19.9% and the viability, T/C [5] was 66.9%. The viability, T/C [6] was 44.6%, the viability, T/C [7] was 56.5% and the viability, T/C [8] was 37.8%. It also gave a viability, T/C (second compound 0.316 µM, first compound 0.316 µM) of 23.2%, a viability, T/C (second compound 0.316 µM, first compound 1 µM) of 13% and a viability, T/C [9] of 82%. The viability, T/C [10] was 64.6%, the viability, T/C [11] was 49.1% and the viability, T/C [12] was 37.6%. The viability, T/C (second compound 1 µM, first compound 0.316 µM) was 18.1%, the viability, T/C (second compound 1 µM, first compound 1 µM) was 5.29% and the viability, T/C [13] was 61.2%. The viability, T/C [14] was 75.1%, the viability, T/C [15] was 50.8% and the viability, T/C [16] was 31.6%. It also gave a viability, T/C (second compound 3.16 µM, first compound 0.316 µM) of 9.65%, a viability, T/C (second compound 3.16 µM, first compound 1 µM) of 5.32% and a viability, T/C [17] of 169%. The viability, T/C [18] was 242%, the viability, T/C [19] was 135% and the viability, T/C [20] was 36.1%. It also gave a viability, T/C (second compound 10 µM, first compound 0.316 µM) of 10.6% and a viability, T/C (second compound 10 µM, first compound 1 µM) of 2.76%.
